The supplement of paper PMC4314810
± gives the standard deviation of the averaged measurements.

System: MCF7
Experiment: HRG-induced Akt activation (dPAkt = log2 pAkt/Akt HRG-stimulated minus log2 pAkt/Akt basal) (log2 ratio difference); higher = stronger HRG-induced Akt(T308) phosphorylation
Conditions: miRNA mimic concentration 10 nM; time after transfection 72 h; heregulin 10 ng/ml; stimulation time 1 h
Outline: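 MCF7 cells ([…], 96-well plates) were transfected with a library of 879 miRNA mimics at 10 nM final using Lipofectamine RNAiMax, in two biological replicates. After 72 h, cells were stimulated with 10 ng/ml heregulin-beta1 for 1 h or left unstimulated. They were fixed with 4% PFA, and phospho-Akt(T308) and total Akt were read by In-Cell Western on an Odyssey. Signals were corrected for column-wise fixation decay, and HRG-induced Akt activation is log2(pAkt/Akt) stimulated minus unstimulated, averaged over replicates.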

Row | Sequence | HRG-induced Akt activation (log2)
1 | UUUUCAACUCUAAUGGGAGAGA | 1.48 ± 0.1
2 | UGCCUGGGUCUCUGGCCUGCGCGU | 1.29 ± 0.18
3 | UUCAAGUAAUUCAGGAUAGGU | 1.06 ± 0.39
4 | CAAAUUCGUAUCUAGGGGAAUA | 1.57 ± 0.036
5 | CGGCCCGGGCUGCUGCUGUUCCU | 1.09 ± 0.4
6 | UUCCUAUGCAUAUACUUCUUUG | 1.11 ± 0.32
7 | AACUGGCCCUCAAAGUCCCGCU | 2.215 ± 0.013
8 | CUGCAAUGUAAGCACUUCUUAC | 0.874 ± 0.36
9 | UCCCACCGCUGCCACCC | 1.98 ± 0.17
10 | UGCCUACUGAGCUGAUAUCAGU | 1.62 ± 0.029
11 | AUGUAUAAAUGUAUACACAC | 1.42 ± 0.5
12 | CCCCACCUCCUCUCUCCUCAG | 1.28 ± 0.38
13 | GGAGAAAUUAUCCUUGGUGUGU | 0.932 ± 0.022
14 | AGGGACUUUCAGGGGCAGCUGU | 1.48 ± 0.18
15 | UCUAGGCUGGUACUGCUGA | 1.57 ± 0.13
16 | UGAGCGCCUCGACGACAGAGCCG | 1.29 ± 0.043
17 | CAAGUCACUAGUGGUUCCGUU | 1.49 ± 0.5
18 | UACUCAGGAGAGUGGCAAUCAC | 1.1 ± 0.15
19 | CAAAACUGGCAAUUACUUUUGC | 1.5 ± 0.052
20 | UGGGGAGCUGAGGCUCUGGGGGUG | 1.74 ± 0.26
21 | CGGCUCUGGGUCUGUGGGGA | 1.13 ± 0.17
22 | UCACAAUGCUGACACUCAAACUGCUGAC | 1.45 ± 0.48
23 | AACUGGAUCAAUUAUAGGAGUG | 1.79 ± 0.16
24 | UAACUGGUUGAACAACUGAACC | 1.93 ± 0.54

Row | Sequence | HRG-induced Akt activation (log2)
25 | CCAGUAUUAACUGUGCUGCUGA | 1.55 ± 0.32
26 | CUCCGUUUGCCUGUUUCGCUG | 2.07 ± 0.2
27 | UACAGUACUGUGAUAACUGAA | 1.57 ± 0.14
28 | UGAGACCUCUGGGUUCUGAGCU | 1.95 ± 0.023
29 | GUGACAUCACAUAUACGGCAGC | 1.08 ± 0.31
30 | UACUGCAGACGUGGCAAUCAUG | 1 ± 0.63
31 | AGAGCUUAGCUGAUUGGUGAAC | 1.58 ± 0.27
32 | UUCUCAAGGAGGUGUCGUUUAU | 0.993 ± 0.67
33 | UCCGUCUCAGUUACUUUAUAGC | 1.63 ± 0.18
34 | UAAGGUGCAUCUAGUGCAGAUAG | 2.27 ± 0.37
35 | UUUGUGACCUGGUCCACUAACC | 1.16 ± 0.88
36 | AAACUCUACUUGUCCUUCUGAGU | 0.945 ± 0.39
37 | CCCCCACAACCGCGCUUGACUAGCU | 1.4 ± 0.091
38 | UAUGUAACAUGGUCCACUAACU | 1.97 ± 0.17
39 | CAGCAGCACACUGUGGUUUGU | 1.54 ± 0.46
40 | CUCUUGAGGGAAGCACUUUCUGU | 2.16 ± 0.45
41 | ACUGCAGUGAAGGCACUUGUAG | 1.646 ± 0.0061
42 | AGUUAAUGAAUCCUGGAAAGU | 1.46 ± 0.25
43 | CGGAUGAGCAAAGAAAGUGGUU | 1.19 ± 0.07
44 | CAACAAAUCCCAGUCUACCUAA | 1.51 ± 0.076
45 | UAGCACCAUCUGAAAUCGGUUA | 1.24 ± 0.077
46 | CAAUCAGCAAGUAUACUGCCCU | 1.93 ± 0.24
47 | AACAGGUGACUGGUUAGACAA | 2.3 ± 0.13
48 | CAUUAUUACUUUUGGUACGCG | 1.58 ± 0.02

Row | Sequence | HRG-induced Akt activation (log2)
49 | UGAGCUGCUGUACCAAAAU | 2.107 ± 0.0035
50 | UGGUGGGCCGCAGAACAUGUGC | 1.74 ± 0.035
51 | UGUAAACAUCCUACACUCAGCU | 0.757 ± 0.3
52 | CAAUUUAGUGUGUGUGAUAUUU | 2 ± 0.13
53 | UCGCCUCCUCCUCUCCC | 1.47 ± 0.17
54 | CAAAGCGCUUCUCUUUAGAGUGU | 0.7 ± 0.83
55 | UAUUCAUUUAUCCCCAGCCUACA | 1.59 ± 0.22
56 | GUGUCUUUUGCUCUGCAGUCA | 1.75 ± 0.15
57 | AGGUUGGGAUCGGUUGCAAUGCU | 1.59 ± 0.021
58 | CAAAAGUAAUUGUGGAUUUUGU | 1.5 ± 0.065
59 | UCGACAGCACGACACUGCCUUC | 1.4 ± 0.42
60 | CUCAUCUGCAAAGAAGUAAGUG | 1.5 ± 0.58
61 | AAAAGUACUUGCGGAUUUUGCU | 1.58 ± 0.21
62 | UUAUUGCUUAAGAAUACGCGUAG | 1.64 ± 0.095
63 | UGAGGGGCAGAGAGCGAGACUUU | 1.83 ± 0.26
64 | UGAGGUAGUAGGUUGUGUGGUU | 1.08 ± 0.14
65 | AGGGGUGGUGUUGGGACAGCUCCGU | 2.91 ± 0.23
66 | CAAGCUUGUAUCUAUAGGUAUG | 1.59 ± 0.17
67 | AGAGUCUUGUGAUGUCUUGC | 2.38 ± 0.067
68 | UCUAUACAGACCCUGGCUUUUC | 1.14 ± 0.18
69 | UAUGUAAUAUGGUCCACAUCUU | 2.01 ± 0.2
70 | CUAUACAACCUACUGCCUUCCC | 1.27 ± 0.16
